US12594335B2, “Platinum-based drug-/photosensitizer-loaded protein nanoparticle, and preparation method therefor and application thereof” (SOOCHOW UNIVERSITY, priority 2020, dated 2026)

How the values were obtained:
[1] = Serum biochemical indexes of liver and kidney functions; type: in vivo, Balb/c mice; settings: 5 mg/kg Pt i.v. every other day, 3 times; serum on day 7, 14, 21, 28
Excerpt: Inspection of biochemical indexes after action of nanoparticles: In order to determine the toxicity of drugs during metabolism in vivo, biochemical indexes of liver and kidney functions were investigated. […]

[2] = In-vitro chemical stability (UV absorbance of Ce6 within 72 h); type: physicochemical; settings: water, phosphate buffer pH 5.5, pH 7.4, culture medium with 10% fetal bovine serum
Description: In-vitro stability of nanoparticles: (1) Chemical stability of nanoparticles: taking 0.1 mL of a nanoparticle solution with the concentration of Ce6 at 20 μmol/L and 0.1 mL of a free Ce6 solution with a concentration of 20 μmol/L, respectively, and adding them respectively to 2.9 mL of pure water, a phosphate buffer with pH 5.5, a phosphate buffer with pH 7.4, and a RPMI 1640 culture medium containing 10% fetal bovine serum; and storing at room temperature and away from light, with 3 copies for each environment. A UV-vis spectrophotometer was used to measure the absorbance change of Ce6 within 72 h.

[3] = Photostability under 660 nm laser irradiation; type: physicochemical
Description: (2) Photostability of nanoparticles: taking 0.1 mL of a nanoparticle solution with the concentration of Ce6 at 20 μmol/L and 0.1 mL of a free Ce6 solution with a concentration of 20 μmol/L, respectively, and adding them respectively to 2.9 mL of pure water, a phosphate buffer with pH 5.5, and a phosphate buffer with pH 7.4; and using a 660 nm laser with the power of 0.15 W/cm^2 to irradiate the solutions once every 30 s, and immediately measuring the ultraviolet absorption value with a UV-vis spectrophotometer until full 5 min of irradiation.

Row | Molecule | kidney indexes Urea and Crea [1] | liver indexes (ALT, AST, ALP) [1] | decrease of UV absorption with time [2] | photostability ([3]; 0.15 W/cm^2, up to 5 min, deionized water, pH 5.5 and pH 7.4 buffers) | time to completed photobleaching ([3]; acidic environment, 0.15 W/cm^2) [s]
1 | N.N.[Cl][Pt][Cl] [free CDDP, cis-dichlorodiammine platinum (II)] | increased rapidly | changed greatly |  |  | 
2 | chlorin e6 [free Ce6] |  |  | 20%-40% | photobleached quickly | ≤ 120
